Data reported in patent publication US8993574B2, “Pyrrole antifungal agents” (F2G Ltd, priority 2008, dated 2015).
Converted amounts (≈) assume the structure as drawn.

Experiments:
Type in all cases: cell-based
Aspergillus flavus [1] = assay: MIC, YAG medium; details: Aspergillus flavus, 24 h, 24 h at 35° C, MIC banded into grades, read-out: MIC grade, A. flavus
Procedure, shortened: (§1)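 Spores harvested from 5-day Sabouraud agar cultures were inoculated at 1−2×10^4 cfu/mL into YAG medium (1% glucose, 1% ammonium chloride, 0.5% yeast extract) over doubling drug dilutions spanning 50-0.05 mg/L, or 0.5-0.0005 mg/L on repeat. After 24 h at 35° C, OD485 was read. MIC is the lowest concentration inhibiting growth >70% versus drug-free control, in mg/L.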

[2] = test system: Aspergillus fumigatus AF210; assay: MIC, YAG medium; details: Aspergillus fumigatus, 24 h at 35° C, MIC banded into grades, read-out: MIC grade, A. fumigatus 210
Procedure, shortened: as §1

[3] = test system: Aspergillus fumigatus AF293; assay: MIC, YAG medium; details: Aspergillus fumigatus, 24 h at 35° C, MIC banded into grades, read-out: MIC grade, A. fumigatus
Procedure, shortened: as §1

Aspergillus niger [4] = assay: MIC, YAG medium; details: Aspergillus niger, 24 h at 35° C, MIC banded into grades, read-out: MIC grade, A. niger
Procedure, shortened: as §1

Aspergillus terreus AT49 [5] = assay: MIC, YAG medium; details: Aspergillus terreus, 24 h at 35° C, MIC banded into grades, read-out: MIC grade, A. terreus 49
Procedure, shortened: as §1

Aspergillus terreus AT4 [6] = assay: MIC, YAG medium; details: Aspergillus terreus, 24 h at 35° C, MIC banded into grades, read-out: MIC grade, A. terreus
Procedure, shortened: as §1

Aspergillus flavus [7] = assay: MIC, RPMI medium; details: Aspergillus flavus, MIC banded into grades, read-out: MIC grade, A. flavus
Procedure, shortened: (§2)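 RPMI (2% glucose, 0.135 M MOPS, pH 7.0) microdilution; drug 50-0.05 mg/L doubling series; inoculum 1−2×10^4 cfu/mL; 24-48 h, 35° C; OD485; MIC = lowest conc. with >80% inhibition vs drug-free control.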

[8] = test system: Aspergillus fumigatus AF210; assay: MIC, RPMI medium; details: Aspergillus fumigatus, AF210, MIC banded into grades, read-out: MIC grade, A. fumigatus 210
Procedure, shortened: as §2

[9] = test system: Aspergillus fumigatus AF293; assay: MIC, RPMI medium; details: Aspergillus fumigatus, AF293, MIC banded into grades, read-out: MIC grade, A. fumigatus
Procedure, shortened: as §2

Aspergillus niger [10] = assay: MIC, RPMI medium; details: Aspergillus niger, MIC banded into grades, read-out: MIC grade, A. niger
Procedure, shortened: as §2

Aspergillus terreus AT49 [11] = assay: MIC, RPMI medium; details: Aspergillus terreus, AT49, MIC banded into grades, read-out: MIC grade, A. terreus 49
Procedure, shortened: as §2

Aspergillus terreus AT4 [12] = assay: MIC, RPMI medium; details: Aspergillus terreus, AT4, MIC banded into grades, read-out: MIC grade, A. terreus
Procedure, shortened: as §2

Candida albicans = assay: MIC, RPMI medium; details: Candida albicans, 24-48 h at 35° C., >80% growth inhibition, banded into grades
Procedure, shortened: as §2

Candida glabrata = assay: MIC, RPMI medium; details: Nakaseomyces glabratus, 24-48 h at 35° C., >80% growth inhibition, banded into grades
Procedure, shortened: as §2

Candida krusei = assay: MIC, RPMI medium; details: Pichia kudriavzevii, 24-48 h at 35° C., >80% growth inhibition, banded into grades
Procedure, shortened: as §2

Candida parapsilosis = assay: MIC, RPMI medium; details: Lodderomyces parapsilosis, 24-48 h at 35° C., >80% growth inhibition, banded into grades
Procedure, shortened: as §2

Candida tropicalis = assay: MIC, RPMI medium; details: Candida tropicalis, 24-48 h at 35° C., >80% growth inhibition, banded into grades
Procedure, shortened: as §2

SMILES	MIC (Aspergillus flavus [1]) [µg/mL]	MIC [2] [µg/mL]	MIC [3] [µg/mL]	MIC (Aspergillus niger [4]) [µg/mL]	MIC (Aspergillus terreus AT49 [5]) [µg/mL]	MIC (Aspergillus terreus AT4 [6]) [µg/mL]	MIC (Aspergillus flavus [7]) [µg/mL]	MIC [8] [µg/mL]	MIC [9] [µg/mL]	MIC (Aspergillus niger [10]) [µg/mL]	MIC (Aspergillus terreus AT49 [11]) [µg/mL]	MIC (Aspergillus terreus AT4 [12]) [µg/mL]	MIC (Candida albicans) [µg/mL]	MIC (Candida glabrata) [µg/mL]	MIC (Candida krusei) [µg/mL]	MIC (Candida parapsilosis) [µg/mL]	MIC (Candida tropicalis) [µg/mL]
C=C(C)CN1CCN(c2ccc(NC(=O)C(=O)c3c(-c4ccccc4)cc(C)n3CCOC)c(F)c2)CC1 [Example 109, N-{2-Fluoro-4-[4-(2-methyl-allyl)-piperazin-1-yl]-phenyl}-2-[1-(2-methoxy-ethyl)-5-methyl-3-phenyl-1H-pyrrol-2-yl]-2-oxo-acetamide]	< 1	< 1	< 1	< 1	< 1	< 1	< 1	< 1	< 1	< 1	< 1	< 1	< 1	< 1	< 1	< 1	1 to 10 (≈ 1.93 to 19.3 µM)
COCCn1c(C)cc(-c2ccccc2)c1C(=O)C(=O)Nc1ccc(N2CCN(CC(C)(C)C)CC2)cc1F [Example 113, N-{4-[4-(2,2-Dimethyl-propyl)-piperazin-1-yl]-2-fluoro-phenyl}-2-[1-(2-methoxy-ethyl)-5-methyl-3-phenyl-1H-pyrrol-2-yl]-2-oxo-acetamide]	< 1	< 1	< 1	< 1	< 1	< 1	1 to 10 (≈ 1.87 to 18.7 µM)	< 1	1 to 10 (≈ 1.87 to 18.7 µM)	< 1	1 to 10 (≈ 1.87 to 18.7 µM)	< 1	< 1	< 1	< 1	< 1	< 1
COCCn1c(C)cc(-c2ccccc2)c1C(=O)C(=O)Nc1ccc(N2CCCCC2)cc1F [Example 114, N-(2-Fluoro-4-piperidin-1-yl-phenyl)-2-[1-(2-methoxy-ethyl)-5-methyl-3-phenyl-1H-pyrrol-2-yl]-2-oxo-acetamide]	< 1	< 1	< 1	< 1	< 1	< 1	1 to 10 (≈ 2.16 to 21.6 µM)	1 to 10 (≈ 2.16 to 21.6 µM)	1 to 10 (≈ 2.16 to 21.6 µM)	< 1	1 to 10 (≈ 2.16 to 21.6 µM)	1 to 10 (≈ 2.16 to 21.6 µM)	< 1	< 1	< 1	< 1	< 1
